{"source": "patent US10072021B2", "about": "“Compound for inhibiting binding between DX2 protein and P14/ARF protein, and pharmaceutical composition for treating or preventing cancer disease containing same as effective ingredient” (PUSAN NATIONAL UNIVERSITY INDUSTRY-UNIVERSITY COOPERATION …, priority 2014, dated 2018)", "key": {"[1]": {"biological_target": "T1, DX2-AIMP2 binding (Homo sapiens, UniProt Q13155)", "T1 sequence (Q13155 1-251 isoform Q13155-2)": "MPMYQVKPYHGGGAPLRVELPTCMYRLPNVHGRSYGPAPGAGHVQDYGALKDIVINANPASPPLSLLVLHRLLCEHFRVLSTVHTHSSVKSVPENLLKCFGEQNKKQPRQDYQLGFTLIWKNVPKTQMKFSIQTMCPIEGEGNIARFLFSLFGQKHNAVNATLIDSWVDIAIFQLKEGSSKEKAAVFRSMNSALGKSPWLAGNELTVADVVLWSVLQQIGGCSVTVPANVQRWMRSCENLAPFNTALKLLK", "test": "Protein binding assay using His-DX2 protein", "details": "FIG. 2C", "procedure": "Here, contransfected 293 cells were allowed to react with MG132 before immunoprecipitation analysis to prevent reduction of two proteins, and after performing SLCB050 treatment (10 μM, 6 hours), immunoprecipitation assay was performed on the cells by using Myc antibodies (DX2).\nTo address direct binding between the two proteins, agarose-bead conjugated GST (negative control) or GST-target protein was incubated with cell lysate or recombinant protein in radioimmunoprecipitation assay (RIPA) buffer (NaCl, 25 mM Tris-Cl, 1% NP-40, 1% sodium deoxycholate, 0.1% SDS, protease inhibitor mixture) for 1 hour at a temperature of 4° C. for a reaction."}, "[2]": {"test_system": "DX2 and p14/ARF", "test": "Localization and levels of DX2 and p14/ARF in cells after treatment (western blot)", "type": "cell-based, human"}, "[3]": {"test_system": "H128 cells (SCLC cell line)", "test": "Soft agar colony formation assay in H128 cells", "type": "cell-based, human", "details": "48 hours, trypan blue staining, FIG. 6", "procedure": "H128 cells which are SCLC cell lines were seeded in soft agar plates and allowed to react with SLCB050 for 48 hours, and then, the cells were examined after staining the cells with trypan blue."}, "[4]": {"test_system": "DX2 and DK MEFs; primary tumor cells from DX2 and DK mice", "test": "Reduction of anticancer drug resistance in DX2 and DK MEFs or primary tumor cells (MTT)", "type": "cell-based, mouse", "procedure": "By MTT assay, anticancer effects were confirmed based on viability of tumor cells. That is, cells were incubated in 0.5 mg/ml of MTT solution for 4 hours at a temperature of 37° C. for a reaction, and then, formazen products formed therefrom were dissolved in dimethyl sulfoxide (DMSO). Then, absorbance thereof was measured at 540 nm by using a spectrometer."}, "[5]": {"test_system": "H446 xenograft", "procedure": "DK (5 month-old, N=6) mice were administered with carrier, SLCB050 (5 or 10 mg/kg), Adriamycin (1, 2.5, or 5 mg/kg), and a combination of SLCB050 and Adriamycin by intraperitoneal (i.p.) injection. After termination of the experiment of each group, mice were dissected and isolated lung tissues. For xenograft, 1×10^7 H446 cells (ATCC) were seeded in nude ice. After 4 weeks, tumor bearing mice were injected with Adriamycin, […], or a combination thereof for 6 weeks. Every weeks, tumor volume and body weight were measured."}, "[6]": {"test_system": "lung tumors of DK mice", "test": "In vivo anticancer effect in DK mice (lung tumors)", "procedure": "All experimental procedures using laboratory animals were approved by the animal care committee of Pusan National University. DX2 (C57/BL6) and K-RasLA2 (C57/BL6) mice were obtained from Dr. Kim, Sung-Hoon and Professor. Choi, Kang-Ryeol (Yonsei University), respectively, and double Tg mice were obtained by cross-breeding of DX2 and K-RasLA2 mice. Before experiment, all mice were maintained under temperature- and light-controlled conditions (20-23° C., 12 h/12 h light/dark cycle), and provided autoclaved food and water.\nEvery weeks, tumor volume and body weight were measured.\nAfter dissection of mice, tissues were fixed using 10% formalin (in PBS) for 24 hours, and embedded in paraffin blocks according to a basic tissue processing procedure. For histological analysis, embedded tissues were cut for […] by Leica microtome (Wetzlar, Germany) and transferred onto adhesive-coated slides (Marienfeld laboratory glassware, Germany). After deparaffin and rehydration, sections were then stained with H&E for routine examination.\nFor IHC staining, rehydrated tissue sections were incubated with antibodies to Ki-67 (Abcam, ab15580), pan-keratin (Sigma, C2931), pro-surfactant C (Millipore, AB3786), NSE (DAKO, IS612), and HER2/Neu (DAKO, A0458) for a reaction. Antigen retrieval was performed using 10 mM sodium citrate (pH 6.0) twice at a temperature of 95° C. for 10 minutes each, and endogenous peroxidase activity was blocked with 3% […] for 10 min. Then, the slides were dehydrated following a standard procedure and sealed with cover glass using mounting solution. TUNEL reaction was done as described in the manual for In Situ Cell Death Detection Kit, POD (Hoffmann-La Roche Ltd, Basel, Swizerland).\nTo evaluate tumor incidence, lung tissues of each mouse was fixed and embedded in paraffin. 5 sections from each mouse were examined by 3 independent investigator, who counted tumor. In addition, tumor area was calculated by tumor occupied area in total lung area using photoshop software."}}, "note": "“Also recorded” adds a separate entry of the source.", "data": [{"smiles": "CC1(C)Oc2cc3oc(=O)ccc3cc2C[C@@H]1OC(=O)/C=C/c1ccco1", "note": "[SLCB050, (7S)-(+)-3-(2-Furanyl)-acrylic acid, 8,8-dimethyl-2-oxo-6,7-dihydro-2H,8H-pyrano[3,2-g]chromen-7-yl-ester]", "values": [{"measurement": "binding between DX2 and AIMP2", "setting": "[1]", "value": "binding between DX2 and AIMP2 was reduced"}, {"measurement": "localization of DX2 and p14/ARF", "setting": "[2]; 10 μM, 6 hours, nucleoplasm, FIG. 4B", "value": "DX2 was decreased and p14/ARF was increased in the nucleoplasm"}, {"measurement": "DX2 and p14/ARF levels", "setting": "[2]; NSCLC cell line H1299 and SCLC cell line H69, FIG. 4C", "value": "decreases DX2, but increases p14/ARF"}, {"measurement": "DX2 levels in p14/ARF-deficient cells", "setting": "[2]; p14/ARF-deficient H322 cells (H322, H460, A549), FIG. 4D", "value": "reduction of DX2; also recorded: DX2 levels decreased considerably"}, {"measurement": "number of colonies / H128 cell growth in soft agar", "setting": "[3]", "value": "completely suppressed the H128 cell growth; also recorded: reduced the number of colonies in a dose-dependent manner"}, {"measurement": "resistance to Adriamycin in primary tumor cells from DX2 and DK mice", "setting": "[4]; Adriamycin 0.2 μg/ml with SLCB050 10 μM, 24 hours, FIG. 8B", "value": "resistance to Adriamycin was also abolished"}, {"measurement": "resistance to GN25 in DX2 and DK MEFs", "setting": "[4]; GN25 5 μM with SLCB050 10 or 20 μM, 6 hours, FIG. 8A", "value": "resistance to GN25 in DX2 and DK cells was abolished"}, {"measurement": "tumor growth, combination", "setting": "[5]; SLCB050 10 mg/kg with low dose Adriamycin 2.5 mg/kg, FIG. 9B", "value": "more obvious anticancer effect; also recorded: obviously suppressed tumor growth"}, {"measurement": "tumor volume, SLCB050 alone", "setting": "[5]; SLCB050 10 mg/kg, three times/week, FIG. 9B", "value": "moderately suppressed"}, {"measurement": "response of H446 xenograft model", "setting": "[5]; single agents, FIG. 9A", "value": "partially responded"}, {"measurement": "weight loss, combination", "setting": "[6]; DK mice, SLCB050 10 mg/kg and Adriamycin 2.5 mg/kg", "value": "without significant weight loss"}, {"measurement": "tumor progression, combination", "setting": "[6]; DK mice, SLCB050 10 mg/kg and Adriamycin 2.5 mg/kg, i.p., FIG. 10B, 10C", "value": "significantly suppressed tumor progression; also recorded: induced tumor regression"}, {"measurement": "DX2 level in vivo (western blot)", "setting": "[6]; DK mice, SLCB050 treatment, FIG. 12A", "value": "reduction of DX2"}, {"measurement": "tumor volumes, combination", "setting": "[6]; DK mice, combinational treatment with Adriamycin and SLCB050, FIG. 10C", "value": "reduced tumor volumes"}, {"measurement": "SCLC regions in lung tissue (H-E staining), combination", "setting": "[6]; DK mice, combinational treatment with Adriamycin and SLCB050, FIG. 11", "value": "more obviously erased"}, {"measurement": "apoptotic tumor cells (TUNEL staining)", "setting": "[6]; lung tissues of DK mice treated with Adriamycin and SLCB050 in combination, FIG. 12B, 12C", "value": "obviously increased apoptosis tumer cells"}]}]}
